SMILES strings stand for the structures.

The assay has as its system Neuro-2A cells. It counts as cell-based.

As for `CC1=C(/C=C/C(C)=C/C=C/C(C)=C/C(=O)O)C(C)(C)CCC1` [all trans retinoic acid, All Trans-Retinoic acid], the “BoNT/A SNAP25197-cleavage product (uptake of BoNT/A) after differentiation reagent” value is recorded as “increase”.

(Values after US8124357B2 (priority 2005, dated 2012).)
